Results reported in PMC6271338, “Synthesis and Cytotoxic Evaluation of Alkoxylated Chalcones” (Molecules, 2014).
Where “and” joins values, the source holds several entries; their conditions need not be identical. Equal entries are not always repeated.

Tests used:
[1] = Cytotoxicity (SRB) against non-tumoral HMLE cells; type: cell-based, human; details: human, HMLE cells (non-tumoral human mammary epithelial cells); increasing concentrations up to 100 μM; mean ± SD of at least three independent experiments; read-out: Normal Human Cell Lines, CC50, HMLE
[2] = Cytotoxicity (SRB) against non-tumoral L02 cells; type: cell-based, human; details: human, L02 cells (non-tumoral human liver cell line); increasing concentrations up to 100 μM; mean ± SD of at least three independent experiments; read-out: Normal Human Cell Lines, CC50, L02
[3] = tested on: L02 (a human liver cell line); assay: Cytotoxicity (SRB) against non-tumoral L02 cells; type: cell-based; details: L02 versus the five tumoral cell lines
MCF-7 cells = assay: In vitro anti-proliferative SRB assay, MCF-7; type: cell-based, human; details: for IC50: Homo sapiens, MCF7, increasing concentrations up to 30 μM, mean ± SD of at least three independent experiments; for SI (CC50 HMLE/IC50 MCF7) / SI (CC50 L02/IC50 MCF7): selectivity index; for SI (CC50 HMLE/IC50 MCF7): HMLE vs MCF7; for SI (CC50 L02/IC50 MCF7): L02 vs MCF7
HepG2 cells = assay: In vitro anti-proliferative SRB assay, HepG2; type: cell-based, human; details: for IC50: Homo sapiens, HepG2, increasing concentrations up to 30 μM, mean ± SD of at least three independent experiments; for SI (CC50 HMLE/IC50 HepG2) / SI (CC50 L02/IC50 HepG2): selectivity index; for SI (CC50 HMLE/IC50 HepG2): HMLE vs HepG2; for SI (CC50 L02/IC50 HepG2): L02 vs HepG2
[4] = tested on: five human cancer cell lines (HepG2, HeLa, MCF-7, A549 and SW1990); assay: In vitro anti-proliferative SRB assay, summary statements over the five-line panel; type: cell-based; details: most of their in vitro IC50 values against the five human cancer lines
Procedure: With a aim of identifying potential anticancer agents with enhanced levels of activity, as well as verifying the conclusions provided above, we took a14 as a starting compound, and then designed and synthesized a series of chalcones b1–42 bearing methoxy groups at the 2' and 6'-positions of the B-ring, whilst varying the substituents on the A-ring. The cytotoxicities of the resulting chalcones were evaluated in vitro against five human cancer cell lines and other two non-tumoral cell lines, including HepG2, HeLa, MCF-7, A549, SW1990, HMLE and L02, and the results are shown in Table 2.
HepG2 and MCF7 cells were grown in the Eagle’s minimum essential medium with Earle’s balanced salts (MEM-EBSS) medium, HeLa, A549 and L02 cells were grown in Dulbecco’s Modified Eagle Media (DMEM), SW1990 cells were grown in RPMI-1640 medium, and HMLE cell were grown in DMEM/F-12 medium. The media were supplemented with 100 U/mL penicillin, […] streptomycin and 10% fetal bovine serum (FBS), and incubated at 37 °C in a humidified atmosphere containing 5% CO2.
Cells were seeded into 96-well plates (4000 cells/well) and incubated at 37 °C in a humidified 5% CO2 atmosphere. After 24 h, the cells were treated with different concentrations of the compounds for 48 h in triplicate to generate dose-response curves. Cell viability was evaluated using the sulforhodamine B (SRB) assay as previous described. […] Etoposide was used as the positive control.

A549 cells = assay: In vitro anti-proliferative SRB assay, A549; type: cell-based, human; details: for IC50: Homo sapiens, A549, increasing concentrations up to 30 μM, mean ± SD of at least three independent experiments; for SI (CC50 HMLE/IC50 A549) / SI (CC50 L02/IC50 A549): selectivity index; for SI (CC50 HMLE/IC50 A549): HMLE vs A549; for SI (CC50 L02/IC50 A549): L02 vs A549
SW1990 cells = assay: In vitro anti-proliferative SRB assay, SW1990; type: cell-based, human; details: for IC50: Homo sapiens, SW1990, increasing concentrations up to 30 μM, mean ± SD of at least three independent experiments; for SI (CC50 HMLE/IC50 SW1990) / SI (CC50 L02/IC50 SW1990): selectivity index; for SI (CC50 HMLE/IC50 SW1990): HMLE vs SW1990; for SI (CC50 L02/IC50 SW1990): L02 vs SW1990
HeLa cells = assay: In vitro anti-proliferative SRB assay, HeLa; type: cell-based, human; details: for IC50: Homo sapiens, HeLa, increasing concentrations up to 30 μM, mean ± SD of at least three independent experiments; for SI (CC50 HMLE/IC50 Hela) / SI (CC50 L02/IC50 Hela): selectivity index; for SI (CC50 HMLE/IC50 Hela): HMLE vs HeLa; for SI (CC50 L02/IC50 Hela): L02 vs HeLa
[5] = tested on: human mammary epithelial cell (HMLE); assay: Cytotoxicity (SRB) against non-tumoral HMLE cells; type: cell-based; details: HMLE versus the five tumoral cell lines

SMILES | CC50 at 48 h [1] | CC50 at 48 h [2] | IC50 (MCF-7 cells) | SI (CC50 HMLE/IC50 MCF7) (MCF-7 cells) | SI (CC50 L02/IC50 MCF7) (MCF-7 cells) | melting point | IC50 (HepG2 cells) | SI (CC50 HMLE/IC50 HepG2) (HepG2 cells) | SI (CC50 L02/IC50 HepG2) (HepG2 cells) | IC50 [4] | IC50 (A549 cells) | SI (CC50 HMLE/IC50 A549) (A549 cells) | SI (CC50 L02/IC50 A549) (A549 cells) | IC50 (SW1990 cells) | SI (CC50 HMLE/IC50 SW1990) (SW1990 cells) | SI (CC50 L02/IC50 SW1990) (SW1990 cells) | IC50 (HeLa cells) | SI (CC50 HMLE/IC50 Hela) (HeLa cells) | SI (CC50 L02/IC50 Hela) (HeLa cells) | SI between the CC50 in HMLE and IC50 in tumoral cells [5] | other results
CCOc1ccccc1C(=O)/C=C/c1c(OC)cccc1OC [b8, (E)-1-(2-Ethoxyphenyl)-3-(2,6-dimethoxyphenyl)prop-2-en-1-one] | 0.83 ± 0.21 µM | 39.6 ± 7.53 µM | 8.56 ± 0.17 µM | 0.1 | 4.6 | 48.8 to 50.4 °C | 4.23 ± 0.09 µM | 0.2 | 9.3 | < 10 µM | 7.36 ± 0.37 µM | 0.1 | 5.4 | 8.2 ± 0.12 µM | 0.1 | 4.8 | 8.72 ± 0.07 µM | 0.1 | 4.5 | – | SI between the CC50 in L02 and IC50 in tumoral cells [3]: more than 2 fold
COc1cccc(OC)c1/C=C/C(=O)c1ccccc1OCc1ccccc1 [b11, (E)-1-(2-(Benzyloxy>)phenyl)-3-(2,6-dimethoxyphenyl)prop-2-en-1-one] | 21 ± 1.26 µM | 38.3 ± 5.63 µM | 4.15 ± 0.2 µM | 5.1 | 9.2 | 94.6 to 97.9 °C | 2.76 ± 0.04 µM | 7.6 | 13.9 | < 10 µM | 3.63 ± 0.13 µM | 5.8 | 10.5 | 7.43 ± 0.56 µM | 2.8 | 5.2 | 3.62 ± 0.07 µM | 5.8 | 10.6 | 2–7 fold | –
COc1cccc(OC)c1/C=C/C(=O)c1ccc(O)cc1O [b27, (E)-1-(2,4-Dihydroxyphenyl)-3-(2,6-dimethoxyphenyl)prop-2-en-1-one] | > 100 µM | 35.5 ± 5.72 µM | 23.1 ± 0.82 µM | >4.3 | 1.5 | 218.7 to 220.2 °C | 17.4 ± 1.01 µM | >5.8 | 2.0 | – | 17.3 ± 0.76 µM | >5.8 | 2.1 | > 30 µM | – | <1.2 | 24.84 ± 0.17 µM | >4.0 | 1.4 | 2–7 fold | –
COc1cc(C(=O)/C=C/c2c(OC)cccc2OC)ccc1O [b29, (E)-1-(4-Hydroxy-3-methoxyphenyl)-3-(2,6-dimethoxyphenyl)prop-2-en-1-one] | 6.31 ± 0.13 µM | > 100 µM | 1.79 ± 0.2 µM | 3.5 | >55.9 | 128.7 to 131.2 °C | 0.97 ± 0.04 µM | 6.5 | >103.1 | < 10 µM | 1.5 ± 0.07 µM | 4.2 | >66.7 | 3.03 ± 0.05 µM | 2.1 | >33.0 | 1.83 ± 0.08 µM | 3.4 | >54.6 | 2–7 fold and 2.1–6.5 fold | fold more potent than etoposide (A549 cells; A549 cells, ratio of IC50 values versus etoposide): 11.5 fold
COc1cccc(OC)c1/C=C/C(=O)c1ccccc1F [b31, (E)-1-(2-Fluorophenyl)-3-(2,6-dimethoxyphenyl)prop-2-en-1-one] | > 100 µM | > 100 µM | 23.5 ± 0.98 µM | >4.3 | >4.3 | 66.6 to 68.1 °C | 18 ± 0.88 µM | >5.6 | >5.6 | – | 27.4 ± 0.67 µM | >3.6 | >3.6 | > 30 µM | – | – | 23.3 ± 0.42 µM | >4.3 | >4.3 | 2–7 fold | –
COc1cccc(OC)c1/C=C/C(=O)c1cccc(Cl)c1 [b34, (E)-1-(3-Chlorophenyl)-3-(2,6-dimethoxyphenyl)prop-2-en-1-one] | 9.42 ± 1.21 µM | 46.9 ± 13.9 µM | 22 µM | 0.4 | 2.1 | 116.5 to 117.2 °C | 13.5 µM | 0.7 | 3.5 | – | 16.1 µM | 0.6 | 2.9 | 21.4 µM | 0.4 | 2.2 | 16.6 µM | 0.6 | 2.8 | – | SI between the CC50 in L02 and IC50 in tumoral cells [3]: more than 2 fold
